Measured values from PMC3036843 (Bioconjugate chemistry, 2010).

Key:
[1] = test system: L1210FR; conditions: for differences in IC50 values against the three cell lines: L1210FR, L1210, WI38, at most
[2] = in vitro; conditions: human, WI38 human lung fibroblast cells
[3] = test system: L1210; test: cells; conditions: Mus musculus, L1210, 72 h, read-out: Cytotoxicities (IC50), L1210
[4] = taxoid released from first-generation mAb-taxoid DDS; cited from earlier work
[5] = test system: L1210FR cells; test: Internalization of biotin-FITC probe 2 by CFM and flow cytometry; format: cell-based, murine; conditions: 100 nM

Molecule: CC(=O)O[C@@]12CO[C@@H]1C[C@H](O)[C@@]1(C)C(=O)[C@H](OC(=O)C3CC3)C3=C(C)[C@@H](OC(=O)[C@H](O)[C@H](C=C(C)C)NC(=O)OC(C)(C)C)C[C@@](O)([C@@H](OC(=O)c4ccccc4)[C@H]21)C3(C)C [SB-T-1214]
- times more potent than paclitaxel ([1]; against L1210FR): ca. 13 times

Molecule: CC(=O)O[C@H]1C(=O)[C@@]2(C)[C@H]([C@H](OC(=O)c3ccccc3)[C@]3(O)C[C@H](OC(=O)[C@H](O)[C@@H](NC(=O)c4ccccc4)c4ccccc4)C(C)=C1C3(C)C)[C@]1(OC(C)=O)CO[C@@H]1C[C@@H]2O [paclitaxel, reference compound]
- IC50 at 72 h [2]: 157 nM
- differences in IC50 values against the three cell lines [1]: less than 45%
- IC50 ([1]; mouse, 72 h): 121 nM
- IC50 [3]: 151 nM

Molecule: SB-T-1214-fluorescein [compound 24]
- differences in IC50 values against the three cell lines [1]: less than 45%
- times less potent than the parent SB-T-1214 ([1]; against L1210FR): ca. 9 times

Molecule: SB-T-12136-SH
- cytotoxicity, times weaker than the parent taxoid (SB-T-1213) [4]: 8 times

Molecule: biotin-FITC [compound 2]
- diminished fluorescence in the cells at 4 °C ([5]; 4 °C, 3 h versus 37 °C, by flow cytometry): ca. 6 times
- internalization into L1210FR cells (CFM) ([5]; 37 °C, 3 h): efficient internalization
- decrease in fluorescence after pre-incubation with excess free biotin ([5]; 37 °C, 3 h, biotin 2 mM pre-incubated 1 h): ca. 4.5 times
- decrease in fluorescence inside the cells in the presence of NaN3 ([5]; 3 h, 37 °C, 0.05 % (w/v) NaN3): ca. 4 times
